Structures can show the parent of a compound that is named as a salt.
What was measured:
Solubility = type: physicochemical; details: over a wide pH range
[1] = Stability of alkylating reagent in the presence of reducing agent TCEP (TLC); type: physicochemical; details: 5 mM each in phosphate buffer pH 7, sixteen (16) hours, room temperature
[2] = molecular target: T1, alkaline phosphatase (Sigma, human placenta) (Homo sapiens, UniProt P05187); assay: Deprotection of phosphate protecting group by alkaline phosphatase (TLC, NMR); type: biochemical; details: mixture of BABA-phosphate and CABA-phosphate, 5 mg in 1 mL pH 8-9 NaOD/D2O, 1 mg (15 units) enzyme, 15 minutes, room temperature
T1 construct: alkaline phosphatase (Sigma, human placenta); purchased Sigma; host or cells: human placenta (tissue-derived)
T1 sequence (P05187 23-506): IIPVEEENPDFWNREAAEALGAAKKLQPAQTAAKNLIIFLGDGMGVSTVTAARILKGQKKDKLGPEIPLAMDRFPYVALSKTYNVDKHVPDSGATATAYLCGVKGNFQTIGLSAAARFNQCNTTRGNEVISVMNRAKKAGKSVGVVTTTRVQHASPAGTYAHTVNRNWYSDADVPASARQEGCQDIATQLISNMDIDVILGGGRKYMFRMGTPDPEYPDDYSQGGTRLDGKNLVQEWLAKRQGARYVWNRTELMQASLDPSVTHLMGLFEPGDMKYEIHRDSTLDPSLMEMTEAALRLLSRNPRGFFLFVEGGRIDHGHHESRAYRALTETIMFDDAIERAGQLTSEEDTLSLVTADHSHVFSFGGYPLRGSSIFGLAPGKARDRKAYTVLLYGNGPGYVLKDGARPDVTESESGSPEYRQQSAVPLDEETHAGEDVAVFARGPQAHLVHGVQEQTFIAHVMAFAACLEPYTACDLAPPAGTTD
Method: A mixture of BABA-phosphate and CABA-phosphate (resulting from preparation of BABA-phosphate), 5 mg in 1 mL pH 8-9 NaOD/D2O is treated with 1 mg (15 units) of alkaline phosphatase (Sigma, human placenta) for 15 minutes at room temperature.
Reaction of the crude product of the reaction with alkaline phosphatase, for about ten (10) minutes, with cysteine, results in the disappearance of the first product, deprotected alkylating reagent, and appearance of a more polar product. The latter is assumed to be an adduct of the alkylating reagent and cysteine.

[3] = Storage stability of derivatizing agent, monitored by total LOCI assay signal modulation (three-reagent protocol); type: physicochemical
Method: A 50 μL mixture of hcy-ABA-sensitizer beads (0.1 mg/ml) and 2 mM TCEP is added to 5 μL hcy serum calibrator in a reaction cuvette, followed by the addition of 50 μL assay buffer. The mixture is incubated for 417 sec. Then, 50 μL of 5 mM BABA is added and followed by 45 μL assay buffer. Following incubation for 157 sec., 50 μL of Ab-coated acceptor beads (at 0.25-0.5 mg/ml) is added. After incubation for 154 sec., the sample is read.
In Table 2, the three-reagent protocol is used as described previously, with 5 mM BABA stored in a different pH buffer as R-2 (reagent 2).
The activity of BABA is monitored by the amount of total assay signal modulation obtained by LOCI using the three-reagent protocol.
The three-reagent assay protocol using CABA-phosphate as derivatizing agent is also assessed. Similar results are obtained with hcy serum calibrators as in the three-reagent protocol using BABA (not shown). The stability of CABA is also studied. The activity of CABA-phosphate as derivatizing agent is monitored by the amount of total assay signal modulation obtained by LOCI using the three-reagent protocol. In Table 3, the three-reagent assay protocol is used with CABA-phosphate stored at two temperatures in pH 9.0 as R-2; mixed hcy-sensitizer beads and TCEP as R-1; mixed Ab-acceptor beads and alkaline phosphatase as R-3.

solubility (Solubility) | reaction of the protected alkylating reagent with TCEP (TLC) [1] | removal of the phosphate group by alkaline phosphatase (TLC, NMR) [2] | % Modulation (0 to 60 μM) ([3]; 5 mM in 50 mM borate buffer pH 9.0, stored @4° C., 1 wk) [%] | % Modulation (0 to 60 μM) ([3]; 5 mM in 50 mM borate buffer pH 9.0, stored @4° C., 2 wks) [%] | % Modulation (0 to 60 μM) ([3]; 5 mM in 50 mM borate buffer pH 9.0, stored @4° C., 5 wks) [%] | % Modulation (0 to 60 μM) ([3]; 5 mM in 50 mM borate buffer pH 9.0, stored @4° C., 7 wks) [%] | % Modulation (0 to 60 μM) ([3]; 5 mM in 50 mM borate buffer pH 9.0, stored @4° C., 10 wks) [%] | % Modulation (0 to 60 μM) ([3]; 5 mM in 50 mM borate buffer pH 9.0, stored @4° C., 13 wks) [%] | % Modulation (0 to 60 μM) ([3]; 5 mM in 50 mM borate buffer pH 9.0, stored @4° C., o/n) [%] | % Modulation (0 to 60 μM) ([3]; 5 mM in 50 mM borate buffer pH 9.0, stored @37° C., 1 wk) [%] | % Modulation (0 to 60 μM) ([3]; 5 mM in 50 mM borate buffer pH 9.0, stored @37° C., 2 wks) [%] | % Modulation (0 to 60 μM) ([3]; 5 mM in 50 mM borate buffer pH 9.0, stored @37° C., 5 wks) [%] | % Modulation (0 to 60 μM) ([3]; 5 mM in 50 mM borate buffer pH 9.0, stored @37° C., 7 wks) [%] | % Modulation (0 to 60 μM) ([3]; 5 mM in 50 mM borate buffer pH 9.0, stored @37° C., 10 wks) [%] | % Modulation (0 to 60 μM) ([3]; 5 mM in 50 mM borate buffer pH 9.0, stored @37° C., 13 wks) [%] | % Modulation (0 to 60 μM) ([3]; 5 mM in 50 mM borate buffer pH 9.0, stored @37° C., o/n) [%] | shelf life compared with BABA ([3]; three-reagent protocol, Table 3) | stability of BABA in solution ([3]; even at the optimum condition, pH 6.0) | Compound
readily soluble | resistant to reaction with TCEP | removed | 54 | 56 | 55 | 54 | 51 | 45 | 57 | 45 | 51 | 50 | 51 | 44 | 35 | 55 | much longer shelf life than BABA | – | O=C(O)c1ccc(/C(=C/Cl)OP(=O)(O)O)cc1 [CABA-phosphate, 4-(chloroacetyl)benzoate enol-phosphate sodium salt]
– | – | – | – | – | – | – | – | – | – | – | – | – | – | – | – | – | – | limited stability | O=C(O)c1ccc(C(=O)CBr)cc1 [BABA, bromoacetylbenzoic acid, reference compound]
